Laboratory results: patent publication US5612317A, “Method for delivering estrogen” (priority 1994, dated 1997)
Each block holds one compound with its values, some of them ahead of it.

Key:
[1] = Circulating concentration of 17β-estradiol and estrone in ovariectomized rats after daily oral dosing for two weeks (radioimmunoassay); type: in vivo; conditions: six ovariectomized rats per group
Protocol: De-conjugation of estradiol-3-(β-glucoside) to estradiol will occur slowly in peripheral tissues, and therefore, will maintain circulating levels of estradiol at a more physiologic level for a longer period of time. A study in humans with the vitamin D-3β-glucoside was conducted as a model compound. The blood level of vitamin D after an equimolar dose of vitamin D3 and vitamin D3 -3β-glucoside was compared. […] Thus, from this single dose vitamin D-glucoside study, there would not appear to be any hazard to the prolonged duration of action of the estradiol resulting from the slow de-conjugation of the estradiol-3-(β-glucoside). A study in ovariectomized rats was also conducted to determine the blood level of estradiol and estrone after receiving three different doses of either estradiol or estradiol-3-(β-glucoside) orally each day for two weeks. […] Thus, estradiol-3-(β-glucoside) will increase circulating concentrations of estradiol.
In vivo rat studies were carried out where estradiol-3-(β-glucoside) was given orally for two weeks to ovariectomized rats.
Circulating concentration of 17β-estradiol and estrone
in six ovariectomized rats per group that received an oral
dose of either 17β-estradiol or 17β-estradiol-3 β-
glucoside (estradiol-glc) each day for two weeks.

[2] = Side-effects and vaginal bleeding in ovariectomized rats dosed orally for two weeks; type: in vivo
Text: Based on the results in rats and humans with the model vitamin D-3β-glucoside and experience with giving estradiol-3-(β-glucoside) to ovariectomized rats, there is no indication of potential additive or multiplicative toxicity.

[3] = Incubation of 3H-vitamin D3-glucoside with rat intestinal homogenate, reverse phase HPLC; type: in vitro ADME; conditions: 3 hours at 37° C
Protocol: FIG. 1A and FIG. 1B depict reverse phase HPLC (2% H2 O/methanol, 1.5 ml/min) of ^3 H-vitamin D3 -glucoside before (FIG. 1A) and after (FIG. 1B) incubation with rat intestinal homogenate for 3 hours at 37° C.
(§1) A study was conducted whereby ^3 H-vitamin D3 -3β-glucoside was incubated with intestine and kidney homogenates. […] Therefore, the same results for estradiol-3β-glucoside would be expected since vitamin D and estradiol are both fat soluble sterols.

[4] = Incubation of 3H-vitamin D3-glucoside with rat kidney homogenate, reverse phase HPLC; type: in vitro ADME; conditions: 3 hours at 37° C
Protocol: FIG. 1C depicts reverse phase HPLC (2% H2 O/methanol, 1.5 ml/min) of ^3 H-vitamin D3 -glucoside after incubation with rat kidney homogenate for 3 hours at 37° C.
as §1

[5] = injected into normal women; cited from earlier work
[6] = test system: estradiol receptor; conditions: "there is evidence"; no method given; cited from earlier work
[7] = listed as 3 H-vitamin D3 -glucoside

Structure (SMILES): C[C@]12CC[C@@H]3c4ccc(O)cc4CC[C@H]3[C@@H]1CC[C@@H]2O [estradiol, 17β-estradiol, reference compound]
- Blood concentration of estradiol ([1]; dose 1, each day for two weeks): 3.5 ± 0.7 pg/mL
- Blood concentration of estradiol ([1]; dose 10, each day for two weeks): 8.7 ± 2.1 pg/mL
- Blood concentration of estradiol ([1]; dose 15, each day for two weeks): 46.8 ± 10.4 pg/mL
- Untoward side-effects or vaginal bleeding ([2]; oral, two weeks, ovariectomized rats): No untoward side-effects or vaginal bleeding was noted

- Metabolism of the glucoside / formation of 3H-vitamin D3 [3, 7]: No ^3 H-vitamin D3 was formed
- De-conjugation of the glucoside / formation of 3H-vitamin D3 [4, 7]: formation of ^3 H-vitamin D3
Structure (SMILES): C=C1CC[C@H](O[C@@H]2O[C@H](CO)[C@@H](O)[C@H](O)[C@H]2O)C/C1=C/C=C1\CCC[C@]2(C)[C@@H]([C@H](C)CCCC(C)C)CC[C@@H]12 [vitamin D3 -3β-glucoside]
- Metabolism of the glucoside / formation of 3H-vitamin D3 [3]: None of the vitamin D3 -3β-glucoside was metabolized in the intestinal homogenates
- De-conjugation of the glucoside / formation of 3H-vitamin D3 ([4]; listed as 3 H-vitamin D3 -3β-glucoside): only the kidney homogenate was capable of removing the glucoside from vitamin D3
- De-conjugation of the glucoside / formation of 3H-vitamin D3 ([4]; listed as vitamin D-3β-glucoside): β-glucosidase(s) in the kidney are able to de-conjugate the β-glucoside from the vitamin D-3β-glucoside

Structure (SMILES): C[C@]12CC[C@@H]3c4ccc(O)cc4CC[C@H]3[C@@H]1CC[C@@H]2OC1O[C@H](CO)[C@@H](O)[C@H](O)[C@H]1O (stereo partly drawn) [17β-estradiol-17-glucoside]
- Metabolite recovered in urine [5]: the 3-glucuronide derivatives of each compound were recovered in the urine

Structure (SMILES): C[C@]12CC[C@@H]3c4ccc(O)cc4CC[C@H]3[C@@H]1CC[C@H]2O[C@@H]1O[C@H](CO)[C@@H](O)[C@H](O)[C@H]1O [17α-estradiol-17-glucoside]
- Metabolite recovered in urine [5]: the 3-glucuronide derivatives of each compound were recovered in the urine

Structure (SMILES): C[C@]12CC[C@@H]3c4ccc(O[C@@H]5O[C@H](CO)[C@@H](O)[C@H](O)[C@H]5O)cc4CC[C@H]3[C@@H]1CC[C@@H]2O [estradiol-glc, 17β-estradiol-3β-glucoside]
- Untoward side-effects or vaginal bleeding ([2]; rat, in vivo, po): No untoward side-effects or vaginal bleeding was noted
- Interaction with the estradiol receptor [6]: does not interact with the estradiol receptor
